Earlier results in US20110047631A1, “HEAT SHOCK PROTEIN DEFICIENCIES AS MODEL SYSTEMS FOR BRAIN PATHOLOGY AND CANCER” (Medical College of Georgia Research Institute Inc., priority 2009, published 2011).

What was measured:
[1] = tested on: Hsps
[2] = 8 mg/kg per mice daily dose
[3] = tested on: mouse models of Amyotrophic Lateral Sclerosis (ALS)

## CC1=C(O)C(=O)C=C2C1=CC=C1[C@@]2(C)CC[C@@]2(C)[C@@H]3C[C@](C)(C(=O)O)CC[C@]3(C)CC[C@]12C [Celasterol]
[1]
  expression of Hsps: enhance the expression of Hsps
[2]
  toxicity: no toxicity
[3]
  neuronal cell death and life span: block neuronal cell death and extend the life of these mice
